Where only a bound is given, the exact number is not on record here.

Data set [1] has as its target T1, HCMV polymerase (Human cytomegalovirus, UniProt P08546).
T1 construct: made in house; host or cells: SF-9 insect cells infected with recombinant baculovirus
Kind of data set: HCMV polymerase assay (scintillation proximity assay), original and modified version. It counts as biochemical. The following applies: SPA; several values per example = repeat determinations, assay version not given; read-out: CMV Polymerase IC50. As for the experimental part:
The HCMV polymerase assay is performed using a scintillation proximity assay (SPA) as described in several references, such as N.D. Cook, et al., Pharmaceutical Manufacturing International, pages 49-53 (1992); K. Takeuchi, Laboratory Practice, September issue (1992); U.S. Pat. No. 4,568,649 (1986); which are incorporated by reference herein. Reactions are performed in 96-well plates. The assay is conducted in 100 μl volume with 5.4 mM HEPES (pH 7.5), 11.7 MM KCl, 4.5 mM MgCl2, 0.36 mg/ml BSA, and 90 nM ^3H-dTTP. Assays are run with and without CHAPS, (3-[(3-Cholamidopropyl)-dimethylammoniol-1-propane-sulfonate) at a final concentration of 2 mM. HCMV polymerase is diluted in enzyme dilution buffer containing 50% glycerol, 250 mM NaCl, 10 mM HEPES (pH 7.5), 100 μg/ml BSA, and 0.01% sodium azide. The HCMV polymerase, which is expressed in recombinant baculovirus-infected SF-9 cells and purified according to literature procedures, is added at 10% (or 10 μl) of the final reaction volume, i.e., 100 μl. Compounds are diluted in 50% DMSO and 10 μl are added to each well. Control wells contain an equivalent concentration of DMSO. Unless noted otherwise, reactions are initiated via the addition of 6 nM biotinylated poly(dA)-oligo(dT) template/primer to reaction mixtures containing the enzyme, substrate, and compounds of interest. Plates are incubated in a 25° C. or 37° C. H2O bath and terminated via the addition of 40 μl/reaction of 0.5 M EDTA (pH 8) per well. Reactions are terminated within the time-frame during which substrate incorporation is linear and varied depending upon the enzyme and conditions used, i.e., 30 min. for HCMV polymerase. Ten (10) μl of streptavidin-SPA beads (20 mg/ml in PBS/10% glycerol) are added following termination of the reaction. Plates are incubated 10 min. at 37° C., then equilibrated to room temperature, and counted on a Packard Topcount. Linear regressions are performed and IC50's are calculated using computer software.
A modified version of the above HCMV polymerase assay is performed as described above, but with the following changes: Compounds are diluted in 100% DMSO until final dilution into assay buffer. In the previous assay, compounds are diluted in 50% DMSO. 4.5 mM dithiotherotol (DTT) is added to the polymerase buffer.
(SPA uses beads or plates that emit light when radiolabelled molecules are held near them.)

T1 sequence (P08546 whole entry): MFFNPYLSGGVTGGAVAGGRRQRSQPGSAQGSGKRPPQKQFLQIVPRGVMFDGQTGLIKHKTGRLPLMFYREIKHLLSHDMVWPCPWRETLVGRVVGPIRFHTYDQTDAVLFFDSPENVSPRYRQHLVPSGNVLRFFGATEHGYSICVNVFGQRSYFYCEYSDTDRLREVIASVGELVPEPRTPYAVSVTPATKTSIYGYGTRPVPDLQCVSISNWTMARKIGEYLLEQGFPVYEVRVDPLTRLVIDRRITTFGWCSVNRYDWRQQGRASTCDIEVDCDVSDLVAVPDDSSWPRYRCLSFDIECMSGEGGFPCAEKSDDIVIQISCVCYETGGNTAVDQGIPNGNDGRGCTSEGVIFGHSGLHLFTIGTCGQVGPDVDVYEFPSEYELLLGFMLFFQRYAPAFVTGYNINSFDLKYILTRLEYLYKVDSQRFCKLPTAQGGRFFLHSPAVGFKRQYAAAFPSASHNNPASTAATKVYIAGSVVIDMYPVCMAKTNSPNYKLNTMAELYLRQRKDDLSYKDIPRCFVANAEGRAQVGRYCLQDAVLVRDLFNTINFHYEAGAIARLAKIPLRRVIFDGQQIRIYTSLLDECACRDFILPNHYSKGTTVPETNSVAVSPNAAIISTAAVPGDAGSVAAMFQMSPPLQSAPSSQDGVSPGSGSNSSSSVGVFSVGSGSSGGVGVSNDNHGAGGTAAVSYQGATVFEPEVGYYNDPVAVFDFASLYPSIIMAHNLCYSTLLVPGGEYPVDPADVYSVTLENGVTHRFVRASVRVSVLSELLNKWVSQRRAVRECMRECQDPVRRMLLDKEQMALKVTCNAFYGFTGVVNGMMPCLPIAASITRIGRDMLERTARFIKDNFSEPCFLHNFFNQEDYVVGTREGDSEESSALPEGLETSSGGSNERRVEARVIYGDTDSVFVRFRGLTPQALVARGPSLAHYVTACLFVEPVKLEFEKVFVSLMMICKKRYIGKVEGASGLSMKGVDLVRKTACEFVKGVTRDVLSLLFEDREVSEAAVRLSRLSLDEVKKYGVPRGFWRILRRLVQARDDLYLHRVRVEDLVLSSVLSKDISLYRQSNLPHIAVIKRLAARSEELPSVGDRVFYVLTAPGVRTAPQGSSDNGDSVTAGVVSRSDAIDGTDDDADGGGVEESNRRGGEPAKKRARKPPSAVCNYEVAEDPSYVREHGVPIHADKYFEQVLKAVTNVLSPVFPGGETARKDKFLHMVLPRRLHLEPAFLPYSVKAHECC

As usually defined, the IC50 is the concentration at which inhibition is half-maximal. Take `CN(Cc1cc2c3c(c1)c(=O)c(C(=O)NCc1ccc(Cl)cc1)cn3CC(=O)N2C)C[C@H](O)c1cc2ccccc2o1` [Example 35, 9-{[[(2S)-2-(1-benzofuran-2-yl)-2-hydroxyethyl](methyl)amino]methyl}-N-(4-chlorobenzyl)-1-methyl-2,7-dioxo-2,3-dihydro-1H,7H-pyrido[1,2,3-de]quinoxaline-6-carboxamide]: the IC50 in data set [1] was 180 nM. Regarding `CN(Cc1cc2c3c(c1)c(=O)c(C(=O)NCc1ccc(Cl)cc1)cn3CC(=O)N2C)C[C@@H](O)c1ccccn1` [Example 9, N-(4-chlorobenzyl)-9-{[[(2R)-2-hydroxy-2-pyridin-2-ylethyl](methyl)amino]methyl}-1-methyl-2,7-dioxo-2,3-dihydro-1H,7H-pyrido[1,2,3-de]quinoxaline-6-carboxamide], in data set [1], the IC50 amounted to 300 nM. What is called melting point is the temperature of the solid-liquid transition. `CN(Cc1cc2c3c(c1)c(=O)c(C(=O)NCc1ccc(Cl)cc1)cn3CC(=O)N2C)CC(O)Cc1ccccc1` (racemic) [Example 17, rac N-(4-chlorobenzyl)-9-{[(2-hydroxy-3-phenylpropyl)(methyl)amino]methyl}-1-methyl-2,7-dioxo-2,3-dihydro-1H,7H-pyrido [1,2,3-de]quinoxaline-6-carboxamide] had a melting point of 121 to 127 °C. The IC50 in data set [1] is 870 nM. In turn, `CN(Cc1cc2c3c(c1)c(=O)c(C(=O)NCc1ccc(F)cc1)cn3CC(=O)N2C)C[C@@H](O)c1cccnc1` [Example 25] showed a melting point of 108 to 110 °C. Further, the IC50 in data set [1] worked out at 930 nM.

`COc1cccc(C(O)CN(C)Cc2cc3c4c(c2)c(=O)c(C(=O)NCc2ccc(Cl)cc2)cn4CC(=O)N3C)c1` (racemic) [Example 18, rac N-(4-chlorobenzyl)-9-{([2-hydroxy-2-(3-methoxyphenyl)ethyl](methyl)amino)methyl}-1-methyl-2,7-dioxo-2,3-dihydro-1H,7H-pyrido[1,2,3-de]quinoxaline-6-carboxamide] registered a melting point of 154 to 156 °C. Moreover, in data set [1], the half-maximal inhibitory concentration (IC50) stood at 180 nM. In the same order, the values of `CN(Cc1cc2c3c(c1)c(=O)c(C(=O)NCc1ccc(F)cc1)cn3CC(=O)N2C)C[C@@H](O)c1cccs1` [Example 32, N-(4-fluorobenzyl)-9-{[[(2R)-2-hydroxy-2-thien-2-ylethyl](methyl)amino]methyl}-1-methyl-2,7-dioxo-2,3-dihydro-1H,7H-pyrido[1,2,3-de]quinoxaline-6-carboxamide] are 113 to 115 °C and 580 nM. For `CN(Cc1cc2c3c(c1)c(=O)c(C(=O)NCc1ccc(F)cc1)cn3CC(=O)N2C)C[C@@H](O)c1ccco1` [Example 23, N-(4-fluorobenzyl)-9-{[[(2R)-2-(2-furyl)-2-hydroxyethyl](methyl)amino]methyl}-1-methyl-2,7-dioxo-2,3-dihydro-1H,7H-pyrido[1,2,3-de]quinoxaline-6-carboxamide], in that order: 150 to 152 °C and 420 nM.

On to `CN(Cc1cc2c3c(c1)c(=O)c(C(=O)NCc1ccc(F)cc1)cn3CC(=O)N2C)C[C@@H](O)c1cc2ccccc2o1` [Example 36, 9-{[[(2R)-2-(1-benzofuran-2-yl)-2-hydroxyethyl](methyl)amino]methyl}-N-(4-fluorobenzyl)-1-methyl-2,7-dioxo-2,3-dihydro-1H,7H-pyrido[1,2,3-de]quinoxaline-6-carboxamide], for which the melting point fell in the range of 94 to 96 °C. In addition, the half-inhibitory concentration (IC50) in data set [1] is less than 30 nM. For the compound `CN(Cc1cc2c3c(c1)c(=O)c(C(=O)NCc1ccc(Cl)cc1)cn3CC(=O)N2C)C[C@@H](O)c1cc2ccccc2o1` [Example 34, 9-{[[(2R)-2-(1-benzofuran-2-yl)-2-hydroxyethyl](methyl)amino]methyl)-N-(4-chlorobenzyl)-1-methyl-2,7-dioxo-2,3-dihydro-1H,7H-pyrido[1,2,3-de]quinoxaline-6-carboxamide], in data set [1], the IC50 amounted to 4 nM.

The compound `Cc1cccc(C(O)CN(C)Cc2cc3c4c(c2)c(=O)c(C(=O)NCc2ccc(Cl)cc2)cn4CC(=O)N3C)n1` (racemic) [Example 8, rac N-(4-chlorobenzyl)-9-{([2-hydroxy-2-(6-methylpyridin-2-yl)ethyl](methyl)amino)methyl}-1-methyl-2,7-dioxo-2,3-dihydro-1H,7H-pyrido [1,2,3-de]quinoxaline-6-carboxamide] returned a melting point of 156 to 158 °C. The IC50 in data set [1] was determined as 1100 nM. For `CN(Cc1cc2c3c(c1)c(=O)c(C(=O)NCc1ccc(Cl)cc1)cn3CC(=O)N2CCO)C[C@@H](O)c1ccco1` [Example 31, N-(4-chlorobenzyl)-9-{([(2R)-2-(2-furyl)-2-hydroxyethyl](methyl)amino)methyl}-1-(2-hydroxyethyl)-2,7-dioxo-2,3-dihydro-1H,7H-pyrido[1,2,3-de]quinoxaline-6-carboxamide], in that order: 166 to 167 °C and 2890 nM. As for `COc1cc(C(O)CN(C)Cc2cc3c4c(c2)c(=O)c(C(=O)NCc2ccc(Cl)cc2)cn4CC(=O)N3C)ccc1O` (racemic) [Example 10, rac N-(4-chlorobenzyl)-9-{([2-hydroxy-2-(4-hydroxy-3-methoxyphenyl)ethyl](methyl)amino)methyl}-1-methyl-2,7-dioxo-2,3-dihydro-1H,7H-pyrido[1,2,3-de]quinoxaline-6-carboxamide], the melting point fell in the range of 133 to 136 °C. For the same compound, the IC50 in data set [1] stood at 240 nM. For `CN(Cc1cc2c3c(c1)c(=O)c(C(=O)NCc1ccc(F)cc1)cn3CC(=O)N2C)C[C@@H](O)c1ccsc1` [Example 28, N-(4-fluorobenzyl)-9-{[[(2S)-2-hydroxy-2-thien-3-ylethyl](methyl)amino]methyl}-1-methyl-2,7-dioxo-2,3-dihydro-1H,7H-pyrido[1,2,3-de]quinoxaline-6-carboxamide], in that order: 150 to 152 °C and 690 nM. For `CN(Cc1cc2c3c(c1)c(=O)c(C(=O)NCc1ccc(F)cc1)cn3CC(=O)N2C)C[C@@H](O)c1cnccn1` [Example 30, N-(4-fluorobenzyl)-9-{[[(2R)-2-hydroxy-2-pyrazin-2-ylethyl](methyl)amino]methyl}-1-methyl-2,7-dioxo-2,3-dihydro-1H,7H-pyrido[1,2,3-de]quinoxaline-6-carboxamide], in that order: 108 to 110 °C and 1090 nM.

Take `CN(Cc1cc2c3c(c1)c(=O)c(C(=O)NCc1ccc(F)cc1)cn3CC(=O)N2C)C[C@H](O)c1cc2ccccc2o1` [Example 37, 9-{[[(2S)-2-(1-benzofuran-2-yl)-2-hydroxyethyl](methyl)amino]methyl}-N-(4-fluorobenzyl)-1-methyl-2,7-dioxo-2,3-dihydro-1H,7H-pyrido[1,2,3-de]quinoxaline-6-carboxamide]: the melting point was 195 to 197 °C. For the same compound, in data set [1], the concentration for half-maximal inhibition (IC50) came to 1190 nM. For `CN(Cc1cc2c3c(c1)c(=O)c(C(=O)NCc1ccc(Cl)cc1)cn3CC(=O)N2C)CC(O)c1ccco1` (racemic) [Example 5, rac N-(4-chlorobenzyl)-9-{([2-(2-furyl)-2-hydroxyethyl](methyl)amino)methyl}-1-methyl-2,7-dioxo-2,3-dihydro-1H,7H-pyrido[1,2,3-de]quinoxaline-6-carboxamide], in that order: 153 to 155 °C and 240 nM. In the same order, the values of `CN(Cc1cc2c3c(c1)c(=O)c(C(=O)NCc1ccc(Cl)cc1)cn3CC(=O)N2C)C[C@@H](O)c1ccsc1` [Example 14, N-(4-chlorobenzyl)-9-{[[(2S)-2-hydroxy-2-thien-3-ylethyl](methyl)amino]methyl}-1-methyl-2,7-dioxo-2,3-dihydro-1H,7H-pyrido[1,2,3-de]quinoxaline-6-carboxamide] are 137 to 139 °C and 190 nM. In the same order, the values of `CN(Cc1cc2c3c(c1)c(=O)c(C(=O)NCc1ccc(F)cc1)cn3CC(=O)N2C)C[C@@H](O)c1ccccc1` [Example 29, N-(4-fluorobenzyl)-9-{[[(2S)-2-hydroxy-2-phenylethyl](methyl)amino]methyl}-1-methyl-2,7-dioxo-2,3-dihydro-1H,7H-pyrido[1,2,3-de]quinoxaline-6-carboxamide] are 150 to 152 °C and 810 nM. Turning to `CN(Cc1cc2c3c(c1)c(=O)c(C(=O)NCc1ccc(Cl)cc1)cn3CC(=O)N2C)CC(O)c1ccccc1` (stereo not shown) [Example 1, N-(4-chlorobenzyl)-9-{[(2-hydroxy-2-phenylethyl) (methyl)amino]methyl}-1-methyl-2,7-dioxo-2,3-dihydro-1H,7H-pyrido[1,2,3-de]quinoxaline-6-carboxamide], in data set [1], the half-maximal inhibitory concentration (IC50) is 220 nM.

The record behind these values is patent US20030207877A1, “Pyridoquinoxaline antivirals” (priority 2001, published 2003).
